1 substance from US7932286B2, “Method for treating colonic viscerosensitivity and spasticity” (priority 2007, dated 2011) can be followed below.

This assay concerns colonic viscerosensitivity and spasticity induced by colonoscopy. In words: Video-endoscopic colonoscopy after oral pre-treatment, individual case studies. The format is in vivo, human. An excerpt: The patient had received a complete colonoscopy three years before in a hospital based gastro-intestinal unit, and this experience left them very anxious concerning the need for a repeat examination. The occurrence of pain during the procedure as well as the discomfort lasting few hours following the colonoscopic examination, despite parenteral sedation/analgesia, was still vivid in their memories. They wanted to negotiate an alternate diagnostic procedure such as a air-contrast barium enema. […] They were instructed to completed this pharmacological preparation by taking two Fleet® Phospho-soda 45 ml vials with five or six glasses of liquid one in the evening before the examination, and one in the morning two hours before the examination to clean and prepare “clean-rep” the colon. They presented alone to the endoscopy clinic and they were appropriately positioned on their left side on the examination table, and the video-endoscopic colonoscopy was initiated by the endoscopist. The colonoscopy was easily completed to the caecum in 14 minutes. […] The whole colonic examination including the accurate examination of the colon upon retraction of the instrument lasted a total of 25 minutes and was negative for mucosal lesions and for endoluminal polypoid formations. The patient then dressed up and walked to the endoscopist's office to receive the good results of the examination. They were asked several questions on their experience of the new pharmacological preparation as compared to their previous hospital-based unit experience with parenteral sedation/analgesia. […] The endoscopist and the assistant nurse were very satisfied with the ease and shortness of the completed procedure.
As part of a complete investigation, a colonoscopy was planned. They were prescribed Trimebutine maleate 200 mg tablets to be taken orally three times a day for three days before the scheduled examination. They were instructed to complete the pharmacological preparation by taking two Fleet® Phospho-soda 45 ml vials with five or six glasses of liquid, one in the evening before the examination, and one in the morning two hours before the examination to clean and prepare “clean-prep” the colon. They presented to the endoscopy unit with doubts that they could sustain the planned examination without any other drug preparation, having seen in their career many patients having barely tolerated this procedure of full colonoscopy, even after having received before the examination meperidine and midazolam intravenously. They also remembered the “stress experienced by the endoscopist and the assistant nurse working at completing the examination rapidly and successfully reaching the caecum in these patients”. Nonetheless, they consented at trying to receive the examination without further pharmacological preparation, with the promise by the physician that the procedure would be interrupted at their request in the case that they could not tolerate the pain or discomfort. After appropriately positioning the patient on their left side, the instrument was delicately introduced in their rectum, and the progression of the instrument gently initiated. They asked to have their head elevated with a pillow so they could see the video monitor and watch the video-endoscopic recording of their examination. […] The physician and the nurse were surprised by the fact that such a patient presenting a clinical irritable bowel syndrome could experience so little discomfort during the examination since these patients characteristically are chronically suffering from a very low threshold of viscerosentivity with solid or gaseous distension of the colon. After the procedure, they commented that they would accept to repeat the examination any time, and would not hesitate to recommend this pharmacological preparation to patients needing complete colonoscopy, and would be ready to reassure them that there were no more reasons to fear to receive such examination.

The mark [1] stands for this setting: Example 1, patient, 200 mg tablets orally three times a day for three days before examination.
The mark [2] stands for this setting: Example 2, patient with clinical irritable bowel syndrome, 200 mg tablets orally three times a day for three days.

For the substance Trimebutine maleate, the “recovery after the procedure” value (Example 1, patient) was “capable to drive home by themself without any assistance or recovery time”. Besides, under setting [1], the “colonic spastic contractions during colonoscopy” value is “No colonic spastic contractions occurred”, the “duration of whole colonic examination including retraction of the instrument” value was determined as 25 min and the “pain or discomfort generated by air-distension of the colon” value was “did not generate pain or discomfort”. The “time in which colonoscopy was completed to the caecum” value (Example 1, patient, 200 mg tablets orally three times a day for three days before examination, no sedation) is 14 min. In addition, under “Example 1, patient, questioned after the examination”, the “patient-reported pain and discomfort during the procedure” value was “did not experience any pain and very mild discomfort”. Under setting [2], the “discomfort experienced by the patient during the examination” value was “only mild but perfectly tolerable discomfort”; the “progression of the instrument in the patient” value is reported as “easy, painless”; the “spastic contractions during colonoscopy” value is on record as “No spastic contractions delayed the progression of the instrument”. Further, under “Example 2, patient with clinical irritable bowel syndrome, 200 mg tablets orally three times a day for three days before examination, no sedation”, the “time in which the caecum was reached” value worked out at 12 min.
